Some results are limits rather than exact numbers.

Here are results for 22 molecules from patent US11939307B2, “Phenylmethyl-piperazine derivatives and antiviral uses thereof” (INSTITUTE OF MEDICINAL BIOTECHNOLOGY, CHINESE ACADEMY OF …, priority 2019, dated 2024).

The subject of one experiment is HCV. The experiment in a line: Assay of anti-HCV activity in HCV-infected Huh7.5 cells (intracellular HCV RNA by one-step quantitative RT-PCR). The class given is cell-based. The settings on record: Hepatitis C virus, Huh7.5, 96 h, read-out: inhibitory activities (inhibitory levels of the compounds against HCV replication). As to the method: 100 μL Huh7.5 cells were seeded at a density of 1×10^5/mL in a 96-well cell culture plate and incubated in an incubator at 37° C., 5% CO2 and saturated humidity for 6 hrs. Then, while infecting Huh7.5 cells with viral solution containing HCV virus particles, the compounds of the present invention (including all specific compounds listed herein) were added at a concentration of 1 μM, respectively. After continuing incubation for 96 hrs, the total intracellular RNA was extracted separately, and the content of intracellular HCV RNA was measured by one-step quantitative RT-PCR, compared with the RNA level of the viral control, and the inhibition rate of the compounds against HCV was calculated.
With `CN(CCN1CC1)c1ccc(C#N)c(CN2CCN(C(c3ccc(Cl)cc3)c3ccc(Cl)cc3)CC2)c1` [Compound 87, 4-((2-(aziridin-1-yl)ethyl)(methyl)amino)-2-((4-(bis(4-chlorophenyl)methyl)piperazin-1-yl)methyl)benzonitrile], the inhibition at 1 µM fell in the range of 50 to 75%.

The experiment is the same for the next values; noted with them: Hepatitis C virus; compound at 1 μM; Huh7.5 cells infected with HCV; 96 hrs; intracellular HCV RNA vs viral control; read-out: inhibitory activities (inhibitory levels of the compounds against HCV replication).
For `CN1CCN(c2ccc(C(F)(F)F)c(CN3CCN(Cc4ccc(Cl)c(Cl)c4)CC3)c2)CC1` [Compound 6, 1-(3,4-dichlorobenzyl)-4-(5-(4-methylpiperazin-1-yl)-2-(trifluoromethyl)benzyl)piperazine], the inhibition at 1 µM is > 75%. `N#Cc1ccc(N2CCN(C3CC3)CC2)cc1CN1CCN(Cc2ccc(Cl)cc2)CC1` [Compound 12, 2-((4-(4-chlorobenzyl)piperazin-1-yl)methyl)-4-(4-cyclopropylpiperazin-1-yl)benzonitrile]: the inhibition at 1 µM lay in the range of 50 to 75%. As for `Cc1cc(N2CCN(Cc3cc(N4CCCN(C)CC4)ccc3C(F)(F)F)CC2)ccc1Cl` [Compound 40, 1-(3-((4-(4-chloro-3-methylphenyl)piperazin-1-yl)methyl)-4-(trifluoromethyl)phenyl)-4-methyl-1,4-diazepane], the inhibition at 1 µM was > 75%. On the same count and under the same terms, for `CN1CCCN(c2ccc(C(F)(F)F)c(CN3CCN(C(c4ccccc4)c4ccccn4)CC3)c2)CC1` (stereo not shown) [Compound 57, 1-methyl-4-(3-((4-(phenyl(pyridin-2-yl)methyl)piperazin-1-yl)methyl)-4-(trifluoromethyl)phenyl)-1,4-diazepane] the value was 50 to 75%. On to `CC1CN(c2ccc(Cl)c(C(F)(F)F)c2)CCN1Cc1cc(N2CCCN(C)CC2)ccc1C(F)(F)F` (stereo not shown) [Compound 32, 1-(3-((4-(4-chloro-3-(trifluoromethyl)phenyl)-2-methylpiperazin-1-yl)methyl)-4-(trifluoromethyl)phenyl)-4-methyl-1,4-diazepane], for which the inhibition at 1 µM was > 75%.

Consider `CN(C)CCN(C)c1ccc(C(F)(F)F)c(CN2CCN(c3ccc(Cl)c(Cl)c3)CC2)c1` [Compound 107, N^1-(3-((4-(3,4-dichlorophenyl)piperazin-1-yl)methyl)-4-(trifluoromethyl)phenyl)-N^1,N^2,N^2-trimethylethan-1,2-diamine], for which the inhibition at 1 µM is > 75%. Take `CC1CN(C(c2ccc(Cl)cc2)c2ccc(Cl)cc2)CCN1Cc1cc(N2CCCN(C)CC2)ccc1C(F)(F)F` (stereo not shown) [Compound 61, 1-(3-((4-(bis(4-chlorophenyl)methyl)-2-methylpiperazin-1-yl)methyl)-4-(trifluoromethyl)phenyl)-4-methyl-1,4-diazepane]: the inhibition at 1 µM is > 75%. The same measure, in the same setting: for `FC(F)(F)c1ccc(N2CCC(N3CCCC3)CC2)cc1CN1CCN(c2ccc(Cl)cc2)CC1` [Compound 28, 1-(4-chlorophenyl)-4-(5-(4-(pyrrolidin-1-yl)piperidin-1-yl)-2-(trifluoromethyl)benzyl)piperazine] the value was > 75%; for `CC(c1ccc(C#N)cc1)N1CCN(Cc2cc(N(C)CCN(C)C)ccc2C(F)(F)F)CC1` (stereo not shown) [Compound 105, 4-{1-(4-[5-{[2-(dimethylamino)ethyl](methyl)amino}-2-(trifluoromethyl)benzyl]piperazin-1-yl)ethyl}benzonitrile], > 75%.

On to `CCN(CC)CCN(C)c1ccc(C#N)c(CN2CCN(Cc3ccc(F)c(Cl)c3)CC2)c1` [Compound 17, 2-((4-(3-chloro-4-fluorobenzyl)piperazin-1-yl)methyl)-4-((2-(diethylamino)ethyl)(methyl)amino)benzonitrile], for which the inhibition at 1 µM was > 75%. Regarding `CCCN(C)CCN(C)c1ccc(C(F)(F)F)c(CN2CCN(C(c3ccc(Cl)cc3)c3ccc(Cl)cc3)CC2)c1` [Compound 70, N^1-(3-((4-(bis(4-chlorophenyl)methyl)piperazin-1-yl)methyl)-4-(trifluoromethyl)phenyl)-N^1,N^2-dimethyl-N^2-propylethan-1,2-diamine], the inhibition at 1 µM was > 75%.

With `CN(C)CCN(C)c1ccc(C(F)(F)F)c(CN2CCN(C(c3ccc(F)cc3)c3ccc(F)cc3)CC2)c1` [Compound 66, N^1-(3-((4-(bis(4-fluorophenyl)methyl)piperazin-1-yl)methyl)-4-(trifluoromethyl)phenyl)-N^1,N^2,N^2-trimethylethan-1,2-diamine], the inhibition at 1 µM was > 75%. With `CN(CCN1CCCC1)c1ccc(C(F)(F)F)c(CN2CCN(C(c3ccc(C(F)(F)F)cc3)c3ccc(C(F)(F)F)cc3)CC2)c1` [Compound 103, 3-([4-{bis[4-(trifluoromethyl)phenyl]methyl}piperazin-1-yl]methyl)-N-methyl-N-[2-(pyrrolidin-1-yl)ethyl]-4-(trifluoromethyl)aniline], the inhibition at 1 µM is > 75%. For `CCN1CCC(N(C)c2ccc(C(F)(F)F)c(CN3CCN(C(c4ccc(Sc5ccccc5)cc4)c4ccc(Sc5ccccc5)cc4)CC3)c2)C1` (stereo not shown) [Compound 101, N-{3-([4-{bis[4-(phenylthio)phenyl]methyl}piperazin-1-yl]methyl)-4-(trifluoromethyl)phenyl}-1-ethyl-N-methylpyrrolidin-3-amine], the inhibition at 1 µM was > 75%. As for `CN(C)CCN(C)c1ccc(C#N)c(CN2CCN(C(c3ccc(C#N)cc3)C3CCCC3)CC2)c1` (stereo not shown) [Compound 104, 2-({4-[(4-cyanophenyl)(cyclopentyl)methyl]piperazin-1-yl}methyl)-4-{[2-(dimethylamino)ethyl](methyl)amino}benzonitrile], the inhibition at 1 µM was > 75%. Still for that read-out and setting: to `CC(C)c1ccc(C(c2ccc(C(C)C)cc2)N2CCN(Cc3cc(N4CCCN(C)CC4)ccc3C(F)(F)F)CC2)cc1` [Compound 48, 1-(3-((4-(bis(4-isopropylphenyl)methyl)piperazin-1-yl)methyl)-4-(trifluoromethyl)phenyl)-4-methyl-1,4-diazepane] belongs > 75%.

For `CCN(C)CCN(C)c1ccc(C#N)c(CN2CCN(C(C)c3cnccn3)CC2)c1` (stereo not shown) [Compound 93, 4-[{2-[ethyl(methyl)amino]ethyl}(methyl)amino)-2-({4-[1-(pyrazin-2-yl)ethyl]piperazin-1-yl}methyl)benzonitrile], the inhibition at 1 µM lay in the range of 50 to 75%. `CC(C)C(c1ccc(Cl)cc1)N1CCN(Cc2cc(N(C)CCN3CCCC3)ccc2C#N)CC1` (stereo not shown) [Compound 16, 2-((4-(1-(4-chlorophenyl)-2-methylpropyl)piperazin-1-yl)methyl)-4-(methyl(2-(pyrrolidin-1-yl)ethyl)amino)benzonitrile]: the inhibition at 1 µM was > 75%. For `CC1CN(c2ccc(Cl)cc2)CCN1Cc1cc(N(C)CN2CCCCC2)ccc1C(F)(F)F` (stereo not shown) [Compound 31, 3-((4-(4-chlorophenyl)-2-methylpiperazin-1-yl)methyl)-N-methyl-N-(piperidin-1-ylmethyl)-4-(trifluoromethyl)aniline], the inhibition at 1 µM is > 75%.

Take `CN1CCCN(c2ccc(C(F)(F)F)c(CN3CCN(C(c4ccc(Cl)c(Cl)c4)C4CCCCC4)CC3)c2)CC1` (stereo not shown) [Compound 96, 1-[3-({4-[cyclohexyl(3,4-dichlorophenyl)methyl]piperazin-1-yl}methyl)-4-(trifluoromethyl)phenyl]-4-methyl-1,4-diazepane]: the inhibition at 1 µM was > 75%. Turning to `CN(CC1CCCN1C)c1ccc(C(F)(F)F)c(CN2CCN(c3ccc(Br)cc3)CC2)c1` (stereo not shown) [Compound 24, 3-((4-(4-bromophenyl)piperazin-1-yl)methyl)-N-methyl-N-((1-methylpyrrolidin-2-yl)methyl)-4-(trifluoromethyl)aniline], the inhibition at 1 µM was > 75%.
